Assay results published in US11237158B2, “Time-resolved fluorescent immunochromatographic test strip for detecting paclitaxel drugs as well as preparation method and application thereof” (BEIJING DIAGREAT BIOTEC[…]., LTD., priority 2018, dated 2022).

Each molecule was assayed on anti-PTX monoclonal antibody (assay: PTX analog interference test (cross reaction rate) on the time-resolved fluorescent immunochromatographic test strip). Details: test concentration 100 ng/mL.
Assay type: binding, mouse
Description: 20 ul of sample is accurately pipetted into 180 ul of sample diluent and mixed fully.
80 uL of sample solution to be tested is accurately pipetted into a test strip loading well with a micropipette, and reaction is carried out at room temperature (20-25° C.) for 15 min. The test strip is inserted into a load carrier of a fluorescence detector, an item to be tested is selected by touching a display screen, a “Detection Start” button is pressed, the fluorescence detector automatically scans the test strip, and a test result is read through the display screen of an instrument or printed.
Quantitative detection: after the test is completed, the instrument obtains the ratio of the time-resolved fluorescent intensity of the detection area on the test strip to the time-resolved fluorescent intensity of the quality control area. Based on a relationship curve of the ratio of the time-resolved fluorescent intensity of the detection area on the pre-built test strip to the time-resolved fluorescent intensity of the quality control area and the concentration of PTX drugs, the content of PTX drug in the sample to be tested is obtained, and finally, the content of the PTX drug in the sample to be tested is obtained by conversion.
The cross reaction rate is measured according to the method of Embodiment 2.
Several analogs of PTX are selected for interference testing.

SMILES	Cross reaction rate
CC(=O)O[C@H]1C(=O)[C@@]2(C)[C@H]([C@H](OC(=O)c3ccccc3)[C@]3(O)C[C@H](OC(=O)[C@H](O)[C@@H](NC(=O)c4ccccc4)c4ccccc4)C(C)=C1C3(C)C)[C@]1(OC(C)=O)CO[C@@H]1C[C@@H]2O [Paclitaxel]	100%

Same assay, conditions: test concentration 1,000 ng/mL

SMILES	Cross reaction rate
CC(=O)O[C@H]1C[C@@]2(O)[C@@H](OC(C)=O)[C@@H]3[C@@]4(CO4)[C@@H](OC(C)=O)C[C@H](OC(C)=O)[C@@]3(C)[C@@H](OC(C)=O)[C@H](OC(C)=O)C(=C1C)C2(C)C [1-Hydroxybaccatin I]	<0.01%
CC(=O)O[C@@]12CO[C@@H]1C[C@H](O)[C@@]1(C)C(=O)[C@H](O)C3=C(C)[C@@H](O)C[C@@](O)([C@@H](OC(=O)c4ccccc4)[C@H]21)C3(C)C [10-Deacetyl-baccatin III]	<0.01%
CC(=O)O[C@H]1C(=O)[C@@]2(C)[C@H]([C@H](OC(=O)c3ccccc3)[C@]3(O)C[C@H](O)C(C)=C1C3(C)C)[C@]1(OC(C)=O)CO[C@@H]1C[C@@H]2O [Baccatin III]	<0.01%
CC(=O)OC1CC2(OC(C)=O)C(OC(C)=O)C3C4(CO4)C(O)CC(OC(C)=O)C3(C)C(OC(C)=O)C(OC(C)=O)C(=C1C)C2(C)C (stereo not drawn) [1-Acetoxyl-5-deacetyl-baccatin I]	<0.01%
CC(=O)OC1CC2(O)C(OC(=O)c3ccccc3)C3C4(OC(C)=O)COC4CC(O)C3(C)C(O)C(OC(C)=O)C(=C1C)C2(C)C (stereo not drawn) [13-Acetyl-9-dihydrobaccatin III]	<0.01%
CC(=O)O[C@@]12CO[C@@H]1C[C@H](O)[C@@]1(C)C(=O)[C@H](O)C3=C(C)[C@@H](OC(=O)[C@H](O)[C@@H](NC(=O)OC(C)(C)C)c4ccccc4)C[C@@](O)([C@@H](OC(=O)c4ccccc4)[C@H]21)C3(C)C [Docetaxel]	<1%
CC(=O)O[C@H]1C(=O)[C@]2(C)[C@@H](O[C@@H]3OC[C@@H](O)[C@H](O)[C@H]3O)C[C@H]3OC[C@@]3(OC(C)=O)[C@H]2[C@H](OC(=O)c2ccccc2)[C@]2(O)C[C@H](OC(=O)[C@H](O)[C@@H](NC(=O)c3ccccc3)c3ccccc3)C(C)=C1C2(C)C [7-Xylosyltaxol]	<1%
C/C=C(\C)C(=O)N[C@@H](c1ccccc1)[C@@H](O)C(=O)O[C@H]1C[C@@]2(O)[C@@H](OC(=O)c3ccccc3)[C@@H]3[C@]4(OC(C)=O)CO[C@@H]4C[C@H](O)[C@@]3(C)C(=O)[C@H](OC(C)=O)C(=C1C)C2(C)C [Cephalomannine]	<0.04%
